Data reported in patent US12071431B2, “Pyridin-sulfonamide compounds for the treatment of conditions related to interleukin 1 beta” (ALLINKY BIOPHARMA, priority 2018, dated 2024).

Tested on: Bleomycin-induced IPF
Assay: Treatment of bleomycin-induced IPF in mice
Format: in vivo
Excerpt: Example 16: Effect of Compound 7 in the Treatment of Bleomycin-Induced IPF Timed pregnant mice (n=30) were selected for the study. The delivered pups were subcutaneously injected on the post-natal day 2 (PND-2) with 1.5 U/kg of Bleomycin (intra-tracheal) and were allowed to remain with the mother until they reached the weanling age. After weanling, the male pups were selected and fed with 60% kcal fat diet (Research Diet-D12492) for the next week. All the animals were observed twice daily for clinical signs. Mice were orally dosed with vehicle, test compounds and reference compound (Pirfenidone) twice daily morning (9.00 AM) and evening before the start of dark cycle (6:00 PM) from day 0 to 14. Animal body weight measurements were made daily for the complete duration of the experiment. Animals were dosed for 14 days with the test and reference compounds. Lung hydroxyproline level was estimated before the treatment start and on the termination day 14. Total cell count and differential leukocyte count in BALF were measured before the treatment start and on […]. Histopathology analysis in the form of H&E Ashcroft score was performed for the lung tissues. All the H&E stained tissue sections were examined by light microscopy. As per the below grading system (Kleiner et al., 2005) in 200× objective lens, IPF scoring was carried out. Collagen Proportion Area (% CPA) Measurement: Masson's Trichrome Staining All the Masson's trichrome stained tissue sections were examined by light microscopy in 100× objective lens. Randomly selected five fields (approx 684.85 μm×917.11m per field) from each lung were subjected to collagen proportion area measurement by using Image Pro Premier 9.1 software. The percentage of collagen proportion area was calculated by dividing collagen tissue area by total tissue area.

## CCOc1ccc(Oc2cc(S(=O)(=O)N(C)C)cnc2N2CCC(Oc3ccc(Cl)cc3)CC2)cc1 [Compound 7]
15 mg/kg dose, oral twice daily, 14 days, vs Bleomycin control, FIG. 4
  lung hydroxyproline levels: significantly reduced
Compound 7 15 mg/kg vs 100 mg/kg Pirfenidone
  reduction of lung hydroxyproline levels compared with Pirfenidone: higher than for 100 mg/kg Pirfenidone
Compared with Bleomycin control, Compound 7 p>0.05, Pirfenidone p<0.05, FIGS. 5A and 5B
  BALF macrophage counts: reduced
lung, Masson's trichrome, in comparison with Bleomycin control, p<0.05, FIG. 6B
  % CPA (Collagen Proportion Area): significant reduction
lung, in comparison with Bleomycin control, p<0.05, FIG. 6A
  fibrosis score (H&E Ashcroft Score): significant reduction
